Assay [1] has as its system HT-1080. The experiment in a line: Antiproliferative activity against human HT-1080 cells assessed as inhibition of cell growth incubated for 72 hrs by MTT assay. In kind it is functional, cell-based. The following applies: HT-1080, 72 h.
The subject of assay [2] is HT-1080. The experiment in a line: HyT activity at GPX4/E3 ligase in human HT-1080 cells assessed as degradation of GPX4 protein at 0.05 uM incubated for 24 hrs by Western blotting analysis relative to control. In kind it is cell-based.
For assay [3], the system named is HT-1080. The assay can be described thus: HyT activity at GPX4/E3 ligase in human HT-1080 cells assessed as degradation of GPX4 protein at 0.2 uM incubated for 24 hrs by Western blotting analysis relative to control. In kind it is cell-based.
Assay [4] concerns OS-RC-2. The assay can be described thus: Antiproliferative activity against human OS-RC-2 cells assessed as inhibition of cell growth incubated for 72 hrs by MTT assay. The settings on record: OS-RC-2, 72 h. In kind it is functional, cell-based.
For assay [5], the system named is HT-1080. The assay can be described thus: HyT activity at GPX4/E3 ligase in human HT-1080 cells assessed as degradation of GPX4 protein at 0.05 uM incubated for 12 hr by Western blotting analysis. In kind it is cell-based.
Assay [6] deals with 786-0. The experiment in a line: Antiproliferative activity against human 786-0 cells assessed as inhibition of cell growth incubated for 72 hrs by MTT assay. The settings on record: 786-0, 72 h. In kind it is functional, cell-based.
Assay [7] deals with MDA-MB-231. The experiment in a line: Antiproliferative activity against human MDA-MB-231 cells assessed as inhibition of cell growth incubated for 72 hrs by MTT assay. The following applies: MDA-MB-231, 72 h. In kind it is functional, cell-based.
In assay [8] the test system is HT-1080. The experiment in a line: HyT activity at GPX4/E3 ligase in human HT-1080 cells assessed as degradation of GPX4 protein at 0.05 uM incubated for 12 hrs by Western blotting analysis relative to control. In kind it is cell-based.
Assay [9] concerns HT-1080. The experiment in a line: HyT activity at GPX4/E3 ligase in human HT-1080 cells assessed as degradation of GPX4 protein at 0.05 uM incubated for 12 hr in presence of chloroquine by Western blotting analysis. In kind it is cell-based.
In assay [10] the test system is HT-1080. The experiment in a line: HyT activity at GPX4/E3 ligase in human HT-1080 cells assessed as degradation of GPX4 protein at 0.05 uM incubated for 12 hr in presence of MG132 by Western blotting analysis. In kind it is cell-based.
Assay [11] relates to MDA-MB-231. The experiment in a line: Antiproliferative activity against human MDA-MB-231 cells assessed as fold increase in inhibition of cell growth incubated for 72 hrs by MTT assay relative to RSL3. In kind it is functional.
For assay [12], the system named is HT-1080. The assay can be described thus: HyT activity at GPX4/E3 ligase in human HT-1080 cells assessed as degradation of GPX4 protein at 0.05 uM incubated for 20 hrs by Western blotting analysis. In kind it is cell-based.
Assay [13] deals with HT-1080. The assay can be described thus: Induction of ferroptosis in human HT-1080 cells assessed as increase in lipid peroxidation at 0.2 to 0.5 uM incubated for 4 hrs in presence of ferrostatin-1 by C11 BODIPY 581/591 dye based flow cytometry. In kind it is functional, cell-based. The settings on record: dose 0.2-0.5 µM.
Assay [14] concerns HT-1080. The assay can be described thus: HyT activity at GPX4/E3 ligase in human HT-1080 cells assessed as degradation of GPX4 protein at 0.05 uM incubated for 7 hrs by Western blotting analysis. In kind it is cell-based.
Assay [15] deals with HT-1080. The assay can be described thus: HyT activity at GPX4/E3 ligase in human HT-1080 cells assessed as degradation of GPX4 protein at 0.05 uM in presence of cycloheximide by Western blotting analysis. In kind it is cell-based. The settings on record: TDE = time-dependent effect.
Assay [16] relates to HT-1080. The experiment in a line: Induction of ferroptosis in human HT-1080 cells assessed as increase in ROS production at 0.2 to 0.5 uM incubated for 4 hrs in presence of ferrostatin-1 by DCFH-DA dye based flow cytometry. In kind it is functional, cell-based. The following applies: dose 0.2-0.5 µM.
The subject of assay [17] is HT-1080. The experiment in a line: HyT activity at GPX4/E3 ligase in human HT-1080 cells assessed as degradation of GPX4 protein at 0.05 uM measured after 4 hrs in presence of cycloheximide by Western blotting analysis. In kind it is cell-based.
Assay [18] is described as follows: HyT activity at GPX4/E3 ligase in human HT-1080 cells assessed as degradation of GPX4 protein by measuring degradation concentration incubated for 24 hrs by Western blotting analysis. In kind it is cell-based. The settings on record: HT-1080, 24 h.
The test system of assay [19] is HT-1080. The assay can be described thus: HyT activity at GPX4/E3 ligase in human HT-1080 cells assessed as degradation of GPX4 protein at 0.05 uM by Western blotting analysis. The settings on record: TDE = time-dependent effect. In kind it is cell-based.
Assay [20] has as its system HT-1080. The experiment in a line: Induction of ferroptosis in human HT-1080 cells assessed as increase in lipid peroxidation at 0.2 to 0.5 uM incubated for 4 hrs by C11 BODIPY 581/591 dye based flow cytometry. In kind it is functional, cell-based. The following applies: dose 0.2-0.5 µM.
In assay [21] the test system is HT-1080. The experiment in a line: Induction of ferroptosis in human HT-1080 cells assessed as increase in ROS production at 0.2 to 0.5 uM incubated for 4 hrs by DCFH-DA dye based flow cytometry. The following applies: dose 0.2-0.5 µM. In kind it is functional, cell-based.
The subject of assay [22] is HT-1080. The assay can be described thus: HyT activity at GPX4/E3 ligase in human HT-1080 cells assessed as degradation of GPX4 protein incubated for 24 hrs by Western blotting analysis. In kind it is cell-based.

Activity calls are given as the source filed them. No cut-off for these calls is given here.

For the compound `COC(=O)[C@H]1Cc2c([nH]c3ccccc23)[C@H](c2ccc(C(=O)NCCOCCOCCOCCNC(=O)CC34CC5CC(CC(C5)C3)C4)cc2)N1C(=O)CCl`, the 50% inhibitory concentration (IC50) in assay [1] was determined as 498 nM.

With `COC(=O)[C@H]1Cc2c([nH]c3ccccc23)[C@H](c2ccc(C(=O)NCCCCCCCCCCNC(=O)CC34CC5CC(CC(C5)C3)C4)cc2)N1C(=O)CCl`, the Activity in assay [2] was 35%; in assay [3], 72%. Further, the IC50 in assay [1] was determined as 36 nM.

Turning to `COC(=O)[C@H]1Cc2c([nH]c3ccccc23)[C@H](c2ccc(C(=O)NCCOCCNC(=O)CC34CC5CC(CC(C5)C3)C4)cc2)N1C(=O)CCl`, in assay [1], the IC50 was 120 nM.

As to `COC(=O)[C@H]1Cc2c([nH]c3ccccc23)[C@H](c2ccc(C(=O)NCCNC(=O)CC34CC5CC(CC(C5)C3)C4)cc2)N1C(=O)CCl`, the figures for the Activity in assay [2] and in assay [3] were 33% and 52%, respectively. In addition, the IC50 in [1] came out at 58 nM.

Take `COC(=O)[C@H]1Cc2c([nH]c3ccccc23)[C@H](c2ccc(C(=O)N3CCN(CCCCNC(=O)CC45CC6CC(CC(C6)C4)C5)CC3)cc2)N1C(=O)CCl`: in [1], the IC50 was found to be 200 nM.

As to `COC(=O)[C@H]1Cc2c([nH]c3ccccc23)[C@H](c2ccc(C(=O)N3CCN(CCCCCCCCNC(=O)CC45CC6CC(CC(C6)C4)C5)CC3)cc2)N1C(=O)CCl`, the Activity in [2] was determined as 35%; in [3], 58%. Further, the IC50 in [1] came to 41 nM.

For the compound `COC(=O)[C@H]1Cc2c([nH]c3ccccc23)[C@H](c2ccc(C(=O)NCCCCCCCCNC(=O)CC34CC5CC(CC(C5)C3)C4)cc2)N1C(=O)CCl`, the Activity was 15% in assay [2] and 31% in assay [3]. In addition, the IC50 in [1] amounted to 163 nM.

In the case of `COC(=O)[C@H]1Cc2c([nH]c3ccccc23)[C@H](c2ccc(C(=O)N3CCN(CCCCCCNC(=O)CC45CC6CC(CC(C6)C4)C5)CC3)cc2)N1C(=O)CCl`, the Activity in assay [2] is 44%; in assay [3] it was 70%. For the same compound, in assay [1], the IC50 worked out at 30 nM.

As to `COC(=O)[C@H]1Cc2c([nH]c3ccccc23)[C@H](c2ccc(C(=O)NCCCCNC(=O)CC34CC5CC(CC(C5)C3)C4)cc2)N1C(=O)CCl`, the Activity in assay [2] came out at 15%; in [3] it was 37%. The concentration for half-maximal inhibition (IC50) in [1] was 122 nM.

With `COC(=O)[C@H]1Cc2c([nH]c3ccccc23)[C@H](c2ccc(C(=O)NCCOCCOCCNC(=O)CC34CC5CC(CC(C5)C3)C4)cc2)N1C(=O)CCl`, the IC50 in [1] was 64 nM.

Regarding `COC(=O)[C@H]1Cc2c([nH]c3ccccc23)[C@H](c2ccc(C(=O)NCCCCCNC(=O)CC34CC5CC(CC(C5)C3)C4)cc2)N1C(=O)CCl`, the results for the Activity in assay [2] and in assay [3] were 20% and 38%, respectively. Besides, in assay [1], the IC50 was found to be 64 nM.

Turning to `COC(=O)[C@H]1Cc2c([nH]c3ccccc23)[C@H](c2ccc(C(=O)NCCCCCCNC(=O)CC34CC5CC(CC(C5)C3)C4)cc2)N1C(=O)CCl`, the Activity in assay [2] worked out at 44%; in assay [3], 59%. The IC50 in [1] was determined as 28 nM.

With `COC(=O)c1ccc([C@H]2c3[nH]c4ccccc4c3C[C@H](C(=O)OC)N2C(=O)CCl)cc1`, the IC50 stood at 82 nM in [4], 47 nM in assay [6], 129 nM in assay [7] and 90 nM in assay [1]. In addition, the result in [5] was Active. Moreover, the Activity in assay [2] was determined as 21%; in [3], 39%.

For `COC(=O)[C@H]1Cc2c([nH]c3ccccc23)[C@H](c2ccc(C(=O)N3CCN(CCNC(=O)CC45CC6CC(CC(C6)C4)C5)CC3)cc2)N1C(=O)CCl`, in assay [1], the IC50 was determined as 71 nM.

`COC(=O)[C@H]1Cc2c([nH]c3ccccc23)[C@H](c2ccc(C(=O)NCCCCCCCNC(C)=O)cc2)N1C(=O)CCl`: the Activity in [2] was found to be 5%; in assay [3] it was 6%. Moreover, in assay [1], the half-maximal inhibitory concentration (IC50) is 380 nM.

Consider `COC(=O)[C@H]1Cc2c([nH]c3ccccc23)[C@H](c2ccc(C(=O)NCCCCCCCNC(=O)CC34CC5CC(CC(C5)C3)C4)cc2)N1C(=O)CCl`, for which the Activity in assay [8] was 50%; in assay [2], 47%; in assay [15], “Tde”; in assay [3], 78%; in assay [19] it was “Tde”; in assay [22], “Dose-Dependent Effect”. Moreover, the IC50 came to 72 nM in [4], 46 nM in assay [6], 32 nM in assay [7] and 24 nM in [1]. Also, the outcome in [9], in assay [10], in assay [13] and in [16] was inactive. For the same compound, in [11], the “fold change (FC)” value is 4. Besides, the result in assay [12], in [14], in assay [17], in [20] and in assay [21] was Active. Further, the DC50 in assay [18] amounted to 19 nM.
